Values quoted from earlier work in patent publication US20050244491A1, “Fast disintegrating meloxicam tablet” (Boehringer Ingelheim International GmbH, priority 2001, published 2005).

Settings: in acidic or neutral medium

Cc1cnc(NC(=O)C2=C(O)c3ccccc3S(=O)(=O)N2C)s1 [Meloxicam, 2H-1,2-benzothiazine-3-carboxamide, 4-hydroxy-2-methyl-N-(5-methyl-2-thiazolyl)-1,1-dioxide]
solubility: low
